Patent publication US11603377B2, “MTORC1 modulators and uses thereof” (Aeovian Pharmaceuticals, Inc., priority 2020, dated 2023)

Key:
[1] = biological target: mTORC2 (Homo sapiens (Human), UniProt P42345+P62942); test: mTORC2 inhibition, AlphaLISA of Phospho-AKT (pAKT pS473) in PC3 cells; assay type: cell-based
[2] = biological target: FKBP51 / FRB ternary complex (Homo sapiens (Human), UniProt P42345+Q13451); test: SPR assay to characterize ternary complex formation with FKBP51 (FRB binding to rapalog-saturated FKBP51); conditions: FRB dilutions with 100 nM rapalog on immobilized FKBP51
In short: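 SPR with biotinylated avi-FKBP51 on streptavidin chip (~200 RU); FRB (0.00011-20 μM, 3-fold series) injected with 100 nM rapalog, A-B-A mode keeping FKBP saturated with rapalog.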

[3] = biological target: FKBP51 (Homo sapiens (Human), UniProt Q13451); test: SPR assay to determine binding affinity to FKBP51 (direct binding); conditions: immobilized biotinylated avi-FKBP51
In short: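 Biotinylated avi-FKBP51 captured on streptavidin chip to about 2000 RU. Compounds injected at 0.5-1000 nM (8 points, 3-fold) for 120 s contact and 3600 s dissociation in 50 mM HEPES pH 7.5, 150 mM NaCl, 2 mM MgCl2, 1 mM DTT, 0.05% Tween-20, 1% DMSO.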

[4] = biological target: FKBP12 / FRB ternary complex (Homo sapiens (Human), UniProt P42345+P62942); test: SPR assay to characterize ternary complex formation with FKBP12 (FRB binding to rapalog-saturated FKBP12); conditions: FRB dilutions with 100 nM rapalog on immobilized FKBP12
In short: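 Biotinylated avi-FKBP12 immobilized (~100 RU) on streptavidin chip; A-B-A injections kept FKBP12 saturated with 100 nM rapalog while FRB (0.00011–20 μM, 3-fold, 12 points) was injected 120 s.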

[5] = biological target: FKBP12 (Homo sapiens (Human), UniProt P62942); test: SPR assay to determine binding affinity to FKBP12 (direct binding); conditions: immobilized biotinylated avi-FKBP12
[6] = biological target: mTORC1 (Homo sapiens (Human), UniProt P42345+P62942); test: mTORC1 inhibition, AlphaLISA of Phospho-p70 S6 kinase (p70S6K pT389) in PC-3 cells; assay type: cell-based; conditions: inhibition of p70S6K pT389 levels

FKBP51, sequence (Q13451 whole entry): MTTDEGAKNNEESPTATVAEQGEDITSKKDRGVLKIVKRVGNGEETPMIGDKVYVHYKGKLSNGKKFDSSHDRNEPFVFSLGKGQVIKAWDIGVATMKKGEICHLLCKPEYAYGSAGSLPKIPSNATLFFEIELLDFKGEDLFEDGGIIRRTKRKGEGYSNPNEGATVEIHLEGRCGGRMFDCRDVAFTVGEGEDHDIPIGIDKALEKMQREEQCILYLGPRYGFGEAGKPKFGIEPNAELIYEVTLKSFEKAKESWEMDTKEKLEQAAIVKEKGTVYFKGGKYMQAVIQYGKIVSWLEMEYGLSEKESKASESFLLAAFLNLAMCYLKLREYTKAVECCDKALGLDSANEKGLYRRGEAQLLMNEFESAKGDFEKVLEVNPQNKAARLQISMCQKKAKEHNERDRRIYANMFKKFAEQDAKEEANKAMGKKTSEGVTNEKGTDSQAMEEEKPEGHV
FKBP12, sequence (P62942 whole entry): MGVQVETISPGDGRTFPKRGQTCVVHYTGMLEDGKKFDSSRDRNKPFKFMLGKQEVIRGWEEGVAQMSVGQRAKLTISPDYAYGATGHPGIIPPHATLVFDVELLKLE

Compound | mTORC2 % inhibition at 1 uM [1] | Kd [2] | Kd [3] | Kd [4] | Kd [5] | IC50 [6]
COC1CC(CC(C)C2CC(=O)C(C)C=C(C)C(O)C(OC)C(=O)C(C)CC(C)C=CC=CC=C(C)C(OCC3CCC3)CC3CCC(C)C(O)(O3)C(=O)C(=O)N3CCCCC3C(=O)O2)CCC1O (stereo not drawn) [Compound 36] | B (B>20% and less than 40% inhibition at 1 uM) | > 800 nM | > 100 nM | 300 to 800 nM | < 0.3 nM | 0.1 to 0.8 nM
COC1CC(CC(C)C2CC(=O)C(C)C=C(C)C(O)C(OC)C(=O)C(C)CC(C)C=CC=CC=C(C)C(OCCC3COC3)CC3CCC(C)C(O)(O3)C(=O)C(=O)N3CCCCC3C(=O)O2)CCC1OCCO (stereo not drawn) [Compound 38] | A (A ≤20% inhibition at 1 micro Molar (uM)) | > 800 nM | 10 to 100 nM | > 800 nM | 0.3 to 1 nM | 0.1 to 0.8 nM
COC1CC(CC(C)C2CC(=O)C(C)C=C(C)C(O)C(OC)C(=O)C(C)CC(C)C=CC=CC=C(C)C(OCC3CC3)CC3CCC(C)C(O)(O3)C(=O)C(=O)N3CCCCC3C(=O)O2)CCC1O (stereo not drawn) [Compound 39] | B (B>20% and less than 40% inhibition at 1 uM) | > 800 nM | > 100 nM | 300 to 800 nM | 0.3 to 1 nM | 0.1 to 0.8 nM
COC1CC(CC(C)C2CC(=O)C(C)C=C(C)C(O)C(OC)C(=O)C(C)CC(C)C=CC=CC=C(C)C(OCC3CCCC3)CC3CCC(C)C(O)(O3)C(=O)C(=O)N3CCCCC3C(=O)O2)CCC1O (stereo not drawn) [Compound 40] | A (A ≤20% inhibition at 1 micro Molar (uM)) | > 800 nM | > 100 nM | 300 to 800 nM | > 1 nM | 0.1 to 0.8 nM
COC1CC(CC(C)C2CC(=O)C(C)C=C(C)C(O)C(OC)C(=O)C(C)CC(C)C=CC=CC=C(C)C(OCC3CC(F)(F)C3)CC3CCC(C)C(O)(O3)C(=O)C(=O)N3CCCCC3C(=O)O2)CCC1O (stereo not drawn) [Compound 41] | A (A ≤20% inhibition at 1 micro Molar (uM)) | > 800 nM | > 100 nM | > 800 nM | 0.3 to 1 nM | > 0.8 nM
COC1CC(CC(C)C2CC(=O)C(C)C=C(C)C(O)C(OC)C(=O)C(C)CC(C)C=CC=CC=C(C)C(OCC3CC3)CC3CCC(C)C(O)(O3)C(=O)C(=O)N3CCCCC3C(=O)O2)CCC1OCCCO (stereo not drawn) [Compound 42] | A (A ≤20% inhibition at 1 micro Molar (uM)) | > 800 nM | > 100 nM | 300 to 800 nM | > 1 nM | > 0.8 nM
COC1CC(CC(C)C2CC(=O)C(C)C=C(C)C(O)C(OC)C(=O)C(C)CC(C)C=CC=CC=C(C)C(OCC3CC3)CC3CCC(C)C(O)(O3)C(=O)C(=O)N3CCCCC3C(=O)O2)CCC1OCCCO (stereo not drawn) [Compound 43] | C (C≥40% and less than 60% inhibition at 1 uM) | < 300 nM | > 100 nM | < 300 nM | > 1 nM | > 0.8 nM
COC1CC(CC(C)C2CC(=O)C(C)C=C(C)C(O)C(OC)C(=O)C(C)CC(C)C=CC=CC=C(C)C(OCC3CCC3)CC3CCC(C)C(O)(O3)C(=O)C(=O)N3CCCCC3C(=O)O2)CCC1OCCCO (stereo not drawn) [Compound 44] | C (C≥40% and less than 60% inhibition at 1 uM) | > 800 nM | > 100 nM | < 300 nM | > 1 nM | 0.1 to 0.8 nM
COC1CC(CC(C)C2CC(=O)C(C)C=C(C)C(O)C(OC)C(=O)C(C)CC(C)C=CC=CC=C(C)C(OCC3CCC3)CC3CCC(C)C(O)(O3)C(=O)C(=O)N3CCCCC3C(=O)O2)CCC1OCCO (stereo not drawn) [Compound 45] | B (B>20% and less than 40% inhibition at 1 uM) | < 300 nM | > 100 nM | < 300 nM | > 1 nM | > 0.8 nM
COC1CC(CC(C)C2CC(=O)C(C)C=C(C)C(O)C(OC)C(=O)C(C)CC(C)C=CC=CC=C(C)C(OC3CC3)CC3CCC(C)C(O)(O3)C(=O)C(=O)N3CCCCC3C(=O)O2)CCC1OCCO (stereo not drawn) [Compound 46] | B (B>20% and less than 40% inhibition at 1 uM) | 300 to 800 nM | > 100 nM | 300 to 800 nM | > 1 nM | 0.1 to 0.8 nM
COC1CC(CC(C)C2CC(=O)C(C)C=C(C)C(O)C(OC)C(=O)C(C)CC(C)C=CC=CC=C(C)C(OC3CC3)CC3CCC(C)C(O)(O3)C(=O)C(=O)N3CCCCC3C(=O)O2)CCC1OCCO (stereo not drawn) [Compound 47] | B (B>20% and less than 40% inhibition at 1 uM) | > 800 nM | > 100 nM | < 300 nM | > 1 nM | > 0.8 nM
CCOC(=O)COC1CCC(CC(C)C2CC(=O)C(C)C=C(C)C(O)C(OC)C(=O)C(C)CC(C)C=CC=CC=C(C)C(OC3CC3)CC3CCC(C)C(O)(O3)C(=O)C(=O)N3CCCCC3C(=O)O2)CC1OC (stereo not drawn) [Compound 48] | A (A ≤20% inhibition at 1 micro Molar (uM)) | > 800 nM | > 100 nM | 300 to 800 nM | > 1 nM | > 0.8 nM
CCOC(=O)COC1CCC(CC(C)C2CC(=O)C(C)C=C(C)C(O)C(OC)C(=O)C(C)CC(C)C=CC=CC=C(C)C(OCC3CCC3)CC3CCC(C)C(O)(O3)C(=O)C(=O)N3CCCCC3C(=O)O2)CC1OC (stereo not drawn) [Compound 49] | B (B>20% and less than 40% inhibition at 1 uM) | > 800 nM | > 100 nM | 300 to 800 nM | < 0.3 nM | > 0.8 nM
CCOC(=O)COC1CCC(CC(C)C2CC(=O)C(C)C=C(C)C(O)C(OC)C(=O)C(C)CC(C)C=CC=CC=C(C)C(OCC3CC3)CC3CCC(C)C(O)(O3)C(=O)C(=O)N3CCCCC3C(=O)O2)CC1OC (stereo not drawn) [Compound 50] | B (B>20% and less than 40% inhibition at 1 uM) | > 800 nM | > 100 nM | 300 to 800 nM | > 1 nM | > 0.8 nM
CCOC(=O)COC1CCC(CC(C)C2CC(=O)C(C)C=C(C)C(O)C(OC)C(=O)C(C)CC(C)C=CC=CC=C(C)C(OCC3CC3)CC3CCC(C)C(O)(O3)C(=O)C(=O)N3CCCCC3C(=O)O2)CC1OC (stereo not drawn) [Compound 51] | A (A ≤20% inhibition at 1 micro Molar (uM)) | > 800 nM | > 100 nM | 300 to 800 nM | > 1 nM | > 0.8 nM
COC1CC(CC(C)C2CC(=O)C(C)C=C(C)C(O)C(OC)C(=O)C(C)CC(C)C=CC=CC=C(C)C(OC3CC3)CC3CCC(C)C(O)(O3)C(=O)C(=O)N3CCCCC3C(=O)O2)CCC1OCCCO (stereo not drawn) [Compound 52] | B (B>20% and less than 40% inhibition at 1 uM) | > 800 nM | > 100 nM | < 300 nM | 0.3 to 1 nM | 0.1 to 0.8 nM
COC1CC(CC(C)C2CC(=O)C(C)C=C(C)C(O)C(OC)C(=O)C(C)CC(C)C=CC=CC=C(C)C(OC3CC3)CC3CCC(C)C(O)(O3)C(=O)C(=O)N3CCCCC3C(=O)O2)CCC1OCCCO (stereo not drawn) [Compound 53] | C (C≥40% and less than 60% inhibition at 1 uM) | > 800 nM | > 100 nM | < 300 nM | 0.3 to 1 nM | 0.1 to 0.8 nM
COC1CC(CC(C)C2CC(=O)C(C)C=C(C)C(O)C(OC)C(=O)C(C)CC(C)C=CC=CC=C(C)C(OCC3CC3)CC3CCC(C)C(O)(O3)C(=O)C(=O)N3CCCCC3C(=O)O2)CCC1OCCO (stereo not drawn) [Compound 54] | B (B>20% and less than 40% inhibition at 1 uM) | > 800 nM | > 100 nM | < 300 nM | > 1 nM | 0.1 to 0.8 nM
CO[C@@H]1C[C@H](C[C@@H](C)[C@@H]2CC(=O)[C@H](C)/C=C(\C)[C@H](O)[C@@H](OC)C(=O)[C@H](C)C[C@H](C)/C=C/C=C/C=C(\C)[C@@H](OCCC3COC3)C[C@@H]3CC[C@@H](C)[C@@](O)(O3)C(=O)C(=O)N3CCCC[C@H]3C(=O)O2)CC[C@H]1O [Compound 55] | B (B>20% and less than 40% inhibition at 1 uM) | > 800 nM | > 100 nM | 300 to 800 nM | < 0.3 nM | 0.1 to 0.8 nM
CCOC(=O)COC1CCC(CC(C)C2CC(=O)C(C)C=C(C)C(O)C(OC)C(=O)C(C)CC(C)C=CC=CC=C(C)C(OCCOC)CC3CCC(C)C(O)(O3)C(=O)C(=O)N3CCCCC3C(=O)O2)CC1OC (stereo not drawn) [Compound 56] | C (C≥40% and less than 60% inhibition at 1 uM) | > 800 nM | > 100 nM | 300 to 800 nM | < 0.3 nM | 0.1 to 0.8 nM
COCCOC1CC2CCC(C)C(O)(O2)C(=O)C(=O)N2CCCCC2C(=O)OC(C(C)CC2CCC(OCC(=O)O)C(OC)C2)CC(=O)C(C)C=C(C)C(O)C(OC)C(=O)C(C)CC(C)C=CC=CC=C1C (stereo not drawn) [Compound 57] | B (B>20% and less than 40% inhibition at 1 uM) | > 800 nM | 10 to 100 nM | 300 to 800 nM | > 1 nM | > 0.8 nM
COC1C[C@H]2CC[C@H](C)[C@](O)(O2)C(=O)C(=O)N(C)C(C)C(=O)OC([C@H](C)C[C@@H]2CC[C@@H](OCCCS(C)(=O)=O)[C@H](OC)C2)CC(=O)C(C)/C=C(\C)C(O)C(OC)C(=O)C(C)CC/C=C/C=C/C=C/1C (stereo partly drawn) [Compound 59] | D (D≥60% inhibition at 1 uM) | 300 to 800 nM | 10 to 100 nM | < 300 nM | < 0.3 nM | < 0.1 nM
